Assay results as given in US6339045B1, “N-(unsubstituted or substituted)-4-substituted-6-(unsubstituted or substituted)phenoxy-2-pyridinecarboxamides or thiocarboxamides, processes for producing the same, and herbicides” (Kureha Kagaku Kogyo Kabushiki Kaisha, priority 1995, dated 2002).

What was measured:
Assay in all cases: Herbicidal effect by foliage and soil treatment
Assay type in all cases: in vivo
Settings in all cases: 10 g ai/10a, evaluated after 14 days
[1] = system: velvetleaf (Abutilon theophrasti)
Description: (§1) Experiment for Determination of Herbicidal Effect by Foliate and Soil Treatment Seeds of redroot pigweed (Amaranthus retroflexus), common blackjack (Bidens pilosa), kediock (Sinapis arvensis), common chickweed (Stellaria media), sicklepod (Cassia obtusifolia), black nightshade (Solanum nigrum), velvetleaf (Abutilon theophrasti), field bindweed (Convolvulus arvensis), wild chamomile (Matricaria chamomilla), cleavers (Galium aparine) and […] (Veronica hederaefolia), were uniformly sowed over a horticultural granular soil (produced by KUREHA CHEMICAL INDUSTRY, CO., LTD.; the same soil was used hereinafter) filled in a planter. The planter was placed in a greenhouse (maintained at 19 to 25° C.) to sprout these plants. Two seedlings of each sprouted plant were transplanted to a 10 cm-diameter pot filled with the horticultural granular soil and cultivated in the greenhouse (maintained at 19 to 25° C.) until reaching a cotyledonal to bifoliate period suited to the foliage and soil treatment. […] Next, additional amounts of Tween 20 and water were added to the obtained solution or suspension to produce a test solution. The plants prepared in the above (1) were placed within a frame having a predetermined inside area, and uniformly sprayed with the test solution using a sprayer such that the amount of each compound applied was controlled to a predetermined level. The plants sprayed with the test solution were placed again in the greenhouse (maintained at 19 to 25° C.) and cultivated therein. After 14 days, the degree of growth of each plant cultivated in the treated region was compared with that of plant cultivated in non-treated region, and evaluated according to the following ratings. The herbicidal activity of each test compound was represented by these ratings

[2] = system: wild chamomile (Matricaria chamomilla)
Description: as §1

[3] = system: field bindweed (Convolvulus arvensis)
Description: as §1

[4] = system: common blackjack (Bidens pilosa)
Description: as §1

[5] = system: black nightshade (Solanum nigrum)
Description: as §1

[6] = system: redroot pigweed (Amaranthus retroflexus)
Description: as §1

[7] = system: kediock (Sinapis arvensis)
Description: as §1

[8] = system: sicklepod (Cassia obtusifolia)
Description: as §1

[9] = system: common chickweed (Stellaria media)
Description: as §1

[10] = system: ivyleafspeedwell (Veronica hederaefolia)
Description: as §1

[11] = system: cleavers (Galium aparine)
Description: as §1

Row | Compound | herbicidal activity rating, AT (Abutilon theophrasti) [1] | herbicidal activity rating, MC (Matricaria chamomilla) [2] | herbicidal activity rating, CA (Convolvulus arvensis) [3] | herbicidal activity rating, BP (Bidens pilosa) [4] | herbicidal activity rating, SN (Solanum nigrum) [5] | herbicidal activity rating, AR (Amaranthus retroflexus) [6] | herbicidal activity rating, SA (Sinapis arvensis) [7] | herbicidal activity rating, CO (Cassia obtusifolia) [8] | herbicidal activity rating, SM (Stellaria media) [9] | herbicidal activity rating, VH (Veronica hederaefolia) [10] | herbicidal activity rating, GA (Galium aparine) [11]
1 | COc1cc(Oc2cccc(C(F)(F)F)c2)nc(C(=O)Nc2ccccc2)c1 [Compound I-1, N-phenyl-4-methoxy-6-{3-(trifluoromethyl)phenoxy}-2-pyridine carboxamide] | 4 (percentage of weeds killed was not less than 60% and less than 80%) | 4 (percentage of weeds killed was not less than 60% and less than 80%) | 4 (percentage of weeds killed was not less than 60% and less than 80%) | 5 (percentage of weeds killed was not less than 80%) | 5 (percentage of weeds killed was not less than 80%) | 5 (percentage of weeds killed was not less than 80%) | 5 (percentage of weeds killed was not less than 80%) | 5 (percentage of weeds killed was not less than 80%) | 4 (percentage of weeds killed was not less than 60% and less than 80%) | 5 (percentage of weeds killed was not less than 80%) | 5 (percentage of weeds killed was not less than 80%)
2 | COc1cc(Oc2cccc(C(F)(F)F)c2)nc(C(=O)Nc2ccc(Cl)cc2)c1 [Compound I-2] | 4 (percentage of weeds killed was not less than 60% and less than 80%) | 3 (percentage of weeds killed was not less than 40% and less than 60%) | 5 (percentage of weeds killed was not less than 80%) | 5 (percentage of weeds killed was not less than 80%) | 5 (percentage of weeds killed was not less than 80%) | 5 (percentage of weeds killed was not less than 80%) | 5 (percentage of weeds killed was not less than 80%) | 5 (percentage of weeds killed was not less than 80%) | 4 (percentage of weeds killed was not less than 60% and less than 80%) | 5 (percentage of weeds killed was not less than 80%) | 5 (percentage of weeds killed was not less than 80%)
3 | COc1cc(Oc2cccc(C(F)(F)F)c2)nc(C(=O)Nc2ccc(F)cc2)c1 [Compound I-11] | 3 (percentage of weeds killed was not less than 40% and less than 60%) | 4 (percentage of weeds killed was not less than 60% and less than 80%) | 4 (percentage of weeds killed was not less than 60% and less than 80%) | 5 (percentage of weeds killed was not less than 80%) | 5 (percentage of weeds killed was not less than 80%) | 5 (percentage of weeds killed was not less than 80%) | 5 (percentage of weeds killed was not less than 80%) | 5 (percentage of weeds killed was not less than 80%) | 4 (percentage of weeds killed was not less than 60% and less than 80%) | 5 (percentage of weeds killed was not less than 80%) | 5 (percentage of weeds killed was not less than 80%)
4 | COc1cc(Oc2cccc(OC(F)(F)F)c2)nc(C(=O)Nc2ccccc2)c1 [Compound I-20, N-phenyl-4-methoxy-6-{3-(trifluoromethoxy)phenoxy}-2-pyridine carboxamide] | 4 (percentage of weeds killed was not less than 60% and less than 80%) | 4 (percentage of weeds killed was not less than 60% and less than 80%) | 4 (percentage of weeds killed was not less than 60% and less than 80%) | 5 (percentage of weeds killed was not less than 80%) | 5 (percentage of weeds killed was not less than 80%) | 5 (percentage of weeds killed was not less than 80%) | 5 (percentage of weeds killed was not less than 80%) | 5 (percentage of weeds killed was not less than 80%) | 5 (percentage of weeds killed was not less than 80%) | 5 (percentage of weeds killed was not less than 80%) | 5 (percentage of weeds killed was not less than 80%)
5 | CCCNC(=O)c1cc(OC)cc(Oc2cccc(C(F)(F)F)c2)n1 [Compound I-33, N-(n-propyl)-4-methoxy-6-{3-(trifluoromethyl)phenoxy}-2-pyridine carboxamide] | 5 (percentage of weeds killed was not less than 80%) | 5 (percentage of weeds killed was not less than 80%) | 4 (percentage of weeds killed was not less than 60% and less than 80%) | 5 (percentage of weeds killed was not less than 80%) | 5 (percentage of weeds killed was not less than 80%) | 5 (percentage of weeds killed was not less than 80%) | 5 (percentage of weeds killed was not less than 80%) | 5 (percentage of weeds killed was not less than 80%) | 5 (percentage of weeds killed was not less than 80%) | 5 (percentage of weeds killed was not less than 80%) | 5 (percentage of weeds killed was not less than 80%)
6 | CCCNC(=S)c1cc(OC)cc(Oc2cccc(C(F)(F)F)c2)n1 [Compound I-34, N-(n-propyl)-4-methoxy-6-{3-(trifluoromethyl)phenoxy}-2-pyridine thiocarboxamide] | 5 (percentage of weeds killed was not less than 80%) | 5 (percentage of weeds killed was not less than 80%) | 4 (percentage of weeds killed was not less than 60% and less than 80%) | 5 (percentage of weeds killed was not less than 80%) | 5 (percentage of weeds killed was not less than 80%) | 5 (percentage of weeds killed was not less than 80%) | 5 (percentage of weeds killed was not less than 80%) | 5 (percentage of weeds killed was not less than 80%) | 5 (percentage of weeds killed was not less than 80%) | 5 (percentage of weeds killed was not less than 80%) | 5 (percentage of weeds killed was not less than 80%)
